# Measurements taken from ChEMBL document CHEMBL1140940, “Pyrido[2,3-d]pyrimidin-5-ones: a novel class of antiinflammatory macrophage colony-stimulating factor-1 receptor inhibitors” (J Med Chem, 2009).
# Active and inactive are the calls of the source. The calls are words filed in the database; no cut-off is given here.
# Experiments:
# [1] = biological target: T1, Receptor-type tyrosine-protein kinase FLT3 (Homo sapiens, UniProt P36888); assay: Inhibition of FLT3 by fluorescence polarization competition immunoassay
# T1 sequence (P36888 whole entry): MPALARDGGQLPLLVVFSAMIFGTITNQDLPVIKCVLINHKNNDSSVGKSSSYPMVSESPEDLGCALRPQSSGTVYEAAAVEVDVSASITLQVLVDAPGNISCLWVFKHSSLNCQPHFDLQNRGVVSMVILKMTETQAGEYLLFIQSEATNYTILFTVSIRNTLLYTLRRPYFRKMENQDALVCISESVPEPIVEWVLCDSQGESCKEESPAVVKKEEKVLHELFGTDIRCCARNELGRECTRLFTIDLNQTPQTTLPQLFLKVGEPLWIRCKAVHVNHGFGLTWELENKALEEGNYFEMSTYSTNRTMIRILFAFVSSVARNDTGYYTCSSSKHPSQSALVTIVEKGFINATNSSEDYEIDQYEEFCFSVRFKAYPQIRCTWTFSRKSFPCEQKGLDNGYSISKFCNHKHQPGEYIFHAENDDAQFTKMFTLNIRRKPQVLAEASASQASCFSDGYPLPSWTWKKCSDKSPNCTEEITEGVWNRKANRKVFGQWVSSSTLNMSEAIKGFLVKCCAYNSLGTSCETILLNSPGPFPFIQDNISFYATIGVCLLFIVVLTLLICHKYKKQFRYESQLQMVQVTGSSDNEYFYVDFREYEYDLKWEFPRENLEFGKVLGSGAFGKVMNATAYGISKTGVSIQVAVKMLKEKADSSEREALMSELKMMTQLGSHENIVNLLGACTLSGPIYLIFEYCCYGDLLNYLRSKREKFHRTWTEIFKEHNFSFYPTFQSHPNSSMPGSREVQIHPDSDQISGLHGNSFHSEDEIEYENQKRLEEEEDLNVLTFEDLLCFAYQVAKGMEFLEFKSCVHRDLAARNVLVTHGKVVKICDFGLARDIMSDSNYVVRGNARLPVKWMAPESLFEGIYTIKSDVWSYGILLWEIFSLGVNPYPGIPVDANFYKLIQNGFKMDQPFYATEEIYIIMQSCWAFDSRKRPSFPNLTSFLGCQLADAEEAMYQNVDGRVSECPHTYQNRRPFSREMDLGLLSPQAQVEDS
# Insulin receptor = Insulin receptor (Homo sapiens, UniProt P06213); assay: Inhibition of IRKbeta by fluorescence polarization competition immunoassay
# [2] = Half life in mouse at 2 mg/kg, iv; type: ADME, organism-based; set-up: dose 2 mg/kg, route intravenous; conditions: in vivo
# [3] = Half life in mouse at 10 mg/kg, po; type: ADME, organism-based; set-up: dose 10 mg/kg, route oral; conditions: in vivo
# [4] = Cmax in monkey at 10 mg/kg, po; type: ADME, organism-based, Macaca mulatta; set-up: dose 10 mg/kg, route oral; conditions: rhesus monkey, in vivo
# [5] = Oral bioavailability in monkey at 10 mg/kg; type: ADME, organism-based, Macaca mulatta; conditions: rhesus monkey, in vivo
# Rattus norvegicus [6] = assay: Reversal of ankle swelling in streptococcal cell wall-induced Lewis rat chronic arthritis model at 10 mg/kg, po twice daily administered on day 19 post streptococcal cell wall challenge; type: functional, organism-based; set-up: dose 10 mg/kg
# Rattus norvegicus [7] = assay: Reversal of ankle swelling in streptococcal cell wall-induced Lewis rat chronic arthritis model at 3 mg/kg, po twice daily administered on day 19 post streptococcal cell wall challenge; type: functional, organism-based; set-up: dose 3 mg/kg
# Rattus norvegicus [8] = assay: Reversal of ankle swelling in streptococcal cell wall-induced Lewis rat chronic arthritis model at 1 mg/kg, po twice daily administered on day 19 post streptococcal cell wall challenge; type: functional, organism-based; set-up: dose 1 mg/kg
# Rattus norvegicus [9] = assay: Inhibition of ankle swelling in Freund's complete adjuvant-induced Lewis rat arthritis model at 3 mg/kg, po twice daily administered on day 8 post adjuvant challenge measured on day 21 post adjuvant challenge relative to control; type: functional
# Rattus norvegicus [10] = assay: Inhibition of ankle swelling in Freund's complete adjuvant-induced Lewis rat arthritis model at 10 mg/kg, po twice daily administered on day 8 post adjuvant challenge measured on day 21 post adjuvant challenge relative to control; type: functional
# Rattus norvegicus [11] = assay: Antiinflammatory effect in Freund's complete adjuvant-induced Lewis rat arthritis model assessed as prevention of osteoclastogenesis at 1 mg/kg, po twice daily administered on day 8 post adjuvant challenge measured on day 21 post adjuvant challenge relative to control; type: functional, organism-based; set-up: dose 1 mg/kg
# Rattus norvegicus [12] = assay: Antiinflammatory effect in Freund's complete adjuvant-induced Lewis rat arthritis model assessed as prevention of osteoclastogenesis at 3 mg/kg, po twice daily administered on day 8 post adjuvant challenge measured on day 21 post adjuvant challenge relative to control; type: functional, organism-based; set-up: dose 3 mg/kg
# Rattus norvegicus [13] = assay: Antiinflammatory effect in Freund's complete adjuvant-induced Lewis rat arthritis model assessed as prevention of bone lesion development at tibial tarsal joint at 1 mg/kg, po twice daily administered on day 8 post adjuvant challenge measured on day 21 post adjuvant challenge by microradiography; type: functional, organism-based; set-up: dose 1 mg/kg
# [14] = Half life in Sprague-Dawley rat at 2 mg/kg, iv; type: ADME, organism-based; set-up: dose 2 mg/kg, route intravenous; conditions: in vivo
# Rattus norvegicus [15] = assay: Toxicity in rat assessed as tolerability at 10 mg/kg; type: organism-based; set-up: dose 10 mg/kg; conditions: in vivo
# Rattus norvegicus [16] = assay: Toxicity in rat assessed as tolerability at 40 mg/kg; type: organism-based; set-up: dose 40 mg/kg; conditions: in vivo
# Insulin receptor, sequence (P06213 28-758 limits assumed): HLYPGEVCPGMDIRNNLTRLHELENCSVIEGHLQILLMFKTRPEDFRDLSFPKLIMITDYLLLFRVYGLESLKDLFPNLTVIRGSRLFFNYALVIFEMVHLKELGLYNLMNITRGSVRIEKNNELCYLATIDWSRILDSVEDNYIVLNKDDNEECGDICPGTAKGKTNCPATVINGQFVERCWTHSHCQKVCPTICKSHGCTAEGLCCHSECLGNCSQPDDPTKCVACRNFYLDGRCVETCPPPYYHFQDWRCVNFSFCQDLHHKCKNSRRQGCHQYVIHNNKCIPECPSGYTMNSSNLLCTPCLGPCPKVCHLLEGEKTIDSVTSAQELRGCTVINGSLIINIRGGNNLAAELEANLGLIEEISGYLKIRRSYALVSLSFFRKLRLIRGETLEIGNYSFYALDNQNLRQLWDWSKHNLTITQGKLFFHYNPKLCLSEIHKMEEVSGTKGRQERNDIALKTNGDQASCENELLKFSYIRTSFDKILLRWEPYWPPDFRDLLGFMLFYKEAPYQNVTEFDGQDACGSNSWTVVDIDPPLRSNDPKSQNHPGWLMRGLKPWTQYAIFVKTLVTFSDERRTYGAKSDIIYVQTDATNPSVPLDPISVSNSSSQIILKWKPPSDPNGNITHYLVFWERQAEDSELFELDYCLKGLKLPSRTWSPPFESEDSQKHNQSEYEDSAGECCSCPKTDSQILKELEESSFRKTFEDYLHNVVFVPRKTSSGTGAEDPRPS
# Insulin receptor, sequence (P06213 763-1382 limits assumed): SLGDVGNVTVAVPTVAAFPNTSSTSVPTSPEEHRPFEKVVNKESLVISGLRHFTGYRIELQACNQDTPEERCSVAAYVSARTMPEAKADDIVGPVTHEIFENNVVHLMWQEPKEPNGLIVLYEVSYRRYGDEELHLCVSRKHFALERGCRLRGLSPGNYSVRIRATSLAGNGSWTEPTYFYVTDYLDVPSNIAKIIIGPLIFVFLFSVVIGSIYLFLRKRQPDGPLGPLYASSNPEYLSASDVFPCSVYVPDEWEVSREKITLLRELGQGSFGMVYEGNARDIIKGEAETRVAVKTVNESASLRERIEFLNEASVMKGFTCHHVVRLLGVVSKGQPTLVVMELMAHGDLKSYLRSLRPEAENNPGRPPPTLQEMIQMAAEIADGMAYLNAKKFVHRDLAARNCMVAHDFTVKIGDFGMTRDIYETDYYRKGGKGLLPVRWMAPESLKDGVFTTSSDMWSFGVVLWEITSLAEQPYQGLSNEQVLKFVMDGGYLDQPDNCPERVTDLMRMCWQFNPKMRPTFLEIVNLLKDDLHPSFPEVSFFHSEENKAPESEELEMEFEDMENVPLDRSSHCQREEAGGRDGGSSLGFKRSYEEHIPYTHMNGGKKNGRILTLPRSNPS
smiles,measurement,setting,value
CONC(=O)c1cn(-c2ccc3c(c2)CCC3)c2nc(Nc3ccc(C4CCN(C)CC4)cc3)ncc2c1=O,IC50,[1],6 nM
same,IC50,Insulin receptor,3700 nM
same,half-life,[2],1.8 h
same,half-life,[3],4 h
same,Cmax,[4],60 nM
same,bioavailability,[5],16.7%
same,Activity,Rattus norvegicus [6],Active
same,Activity,Rattus norvegicus [7],Active
same,Activity,Rattus norvegicus [8],Active
same,inhibition in vivo at 3 mg/kg,Rattus norvegicus [9],8%
same,inhibition in vivo at 10 mg/kg,Rattus norvegicus [10],17%
same,Activity,Rattus norvegicus [11],Active
same,Activity,Rattus norvegicus [12],Active
same,Activity,Rattus norvegicus [13],Active
same,half-life,[14],4.6 h
same,Activity,Rattus norvegicus [15],Non-toxic
same,Activity,Rattus norvegicus [16],Non-toxic
